Experimental data from ChEMBL document CHEMBL1201862, “PubChem BioAssay data set” (2004).
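1) Cells in 96-well plates. 2) Compound, 48 h, 5 concentrations. 3) Linear interpolation between surrounding doses. 4) Unreached endpoint = highest concentration. GI50 marks 50% less growth.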 The source made the active and inactive calls. Cut-off read from the data, not from the text of the source: active = GI50 up to about 1.1 µM and inactive = higher.

Experiments:
Test in all cases: inhibition of tumour cell growth, NCI panel, 48 h
A549 = test system: A549
TK-10 = test system: TK-10
UO-31 = test system: UO-31
RPMI-8226 = test system: RPMI-8226
ACHN = test system: ACHN
SNB-19 = test system: SNB-19
UACC-257 = test system: UACC-257
UACC-62 = test system: UACC-62
DLD-1 = test system: DLD-1
RXF 631 = test system: RXF 631
SK-OV-3 = test system: SK-OV-3
SK-MEL-5 = test system: SK-MEL-5
OVCAR-4 = test system: OVCAR-4
SN12C = test system: SN12C
NCI-H522 = test system: NCI-H522
SF-295 = test system: SF-295
SNB-75 = test system: SNB-75
SR = test system: SR
Malme-3M = test system: Malme-3M
DMS-273 = test system: DMS-273
HCT-116 = test system: HCT-116
CAKI-1 = test system: CAKI-1
SNB-78 = test system: SNB-78
DMS-114 = test system: DMS-114
HL-60 = test system: HL-60
RXF 393 = test system: RXF 393
OVCAR-5 = test system: OVCAR-5
OVCAR-8 = test system: OVCAR-8
KM-20L2 = test system: KM-20L2
HT-29 = test system: HT-29
CCRF-CEM = test system: CCRF-CEM
786-0 = test system: 786-0
LOX IMVI = test system: LOX IMVI
NCI-H226 = test system: NCI-H226
EKVX = test system: EKVX
MOLT-4 = test system: MOLT-4
NCI-H23 = test system: NCI-H23
HOP-92 = test system: HOP-92
SK-MEL-2 = test system: SK-MEL-2
HCC 2998 = test system: HCC 2998
SW-620 = test system: SW-620
XF498 = test system: XF498
NCI-H460 = test system: NCI-H460
IGROV-1 = test system: IGROV-1
LXFL 529 = test system: LXFL 529
M14 = test system: M14
SK-MEL-28 = test system: SK-MEL-28
M19-MEL = test system: M19-MEL
SF-268 = test system: SF-268
HOP-18 = test system: HOP-18
COLO 205 = test system: COLO 205
U-251 = test system: U-251
K562 = test system: K562
HOP-62 = test system: HOP-62
KM12 = test system: KM12
OVCAR-3 = test system: OVCAR-3
SF-539 = test system: SF-539
A498 = test system: A498
HCT-15 = test system: HCT-15

Measured: GI50

CCCCCCCCCC1CC(=O)OC2=C1C(=O)CCC2 (centres undefined)
inactive: A549 > 100 µM | TK-10 > 100 µM | UO-31 > 100 µM | RPMI-8226 > 100 µM | ACHN > 100 µM | SNB-19 > 100 µM | UACC-257 > 100 µM | UACC-62 > 100 µM | DLD-1 > 100 µM | RXF 631 > 100 µM | SK-OV-3 > 100 µM | SK-MEL-5 > 100 µM | OVCAR-4 > 100 µM | SN12C > 100 µM | NCI-H522 > 100 µM | SF-295 > 100 µM | SNB-75 > 100 µM | SR > 100 µM | Malme-3M > 100 µM | DMS-273 > 100 µM | HCT-116 > 100 µM | CAKI-1 > 100 µM | SNB-78 > 100 µM | DMS-114 > 100 µM | HL-60 > 100 µM | RXF 393 > 100 µM | OVCAR-5 > 100 µM | OVCAR-8 > 100 µM | KM-20L2 > 100 µM | HT-29 > 100 µM | CCRF-CEM > 100 µM | 786-0 > 100 µM | LOX IMVI > 100 µM | NCI-H226 > 100 µM | EKVX > 100 µM | MOLT-4 > 100 µM | NCI-H23 > 100 µM | HOP-92 > 100 µM | SK-MEL-2 > 100 µM | HCC 2998 > 100 µM | SW-620 > 100 µM | XF498 > 100 µM | NCI-H460 > 100 µM | IGROV-1 > 100 µM | LXFL 529 > 100 µM | M14 > 100 µM | SK-MEL-28 > 100 µM | M19-MEL > 100 µM | SF-268 > 100 µM | HOP-18 > 100 µM | COLO 205 > 100 µM | U-251 > 100 µM | K562 > 100 µM | HOP-62 > 100 µM | KM12 > 100 µM | OVCAR-3 > 100 µM | SF-539 > 100 µM

N#C/C(=C1\OC(=O)C(c2ccc(Br)cc2)=C1O)c1ccc(Br)cc1
inactive: A549 18 µM | TK-10 22.1 µM | UO-31 15.1 µM | RPMI-8226 15.1 µM | ACHN 15.7 µM | SNB-19 14.4 µM | UACC-257 15.3 µM | UACC-62 11.6 µM | DLD-1 15.8 µM | RXF 631 15.4 µM | SK-OV-3 18.5 µM | OVCAR-4 16.5 µM | SN12C 11.2 µM | NCI-H522 12.4 µM | SF-295 17.7 µM | SNB-75 17.6 µM | SR 17.9 µM | Malme-3M 16.9 µM | DMS-273 21.3 µM | HCT-116 17.3 µM | CAKI-1 17.3 µM | SNB-78 12.3 µM | DMS-114 12.8 µM | HL-60 11.6 µM | RXF 393 12 µM | OVCAR-5 19.1 µM | OVCAR-8 12.1 µM | KM-20L2 17.5 µM | HT-29 17.3 µM | CCRF-CEM 11.1 µM | 786-0 14.7 µM | LOX IMVI 15 µM | NCI-H226 18.1 µM | EKVX 17.5 µM | MOLT-4 17.2 µM | NCI-H23 12.9 µM | HOP-92 16.1 µM | HCC 2998 15.5 µM | SW-620 14.3 µM | XF498 12.9 µM | NCI-H460 15.7 µM | IGROV-1 14.2 µM | A498 15.5 µM | LXFL 529 10.2 µM | M14 14.8 µM | SK-MEL-28 17.2 µM | M19-MEL 14.6 µM | SF-268 14.7 µM | HOP-18 13.5 µM | COLO 205 17.9 µM | U-251 13.2 µM | K562 19.3 µM | HOP-62 19.2 µM | KM12 14.9 µM | OVCAR-3 14.9 µM | SF-539 16.1 µM

C=CSCCC(N)C(=O)O (centres undefined)
> 100 µM: HCT-15
inactive: A549 > 100 µM | TK-10 > 100 µM | UO-31 > 100 µM | ACHN > 100 µM | SNB-19 > 100 µM | UACC-257 > 100 µM | UACC-62 > 100 µM | DLD-1 > 100 µM | RXF 631 > 100 µM | SK-MEL-5 > 100 µM | OVCAR-4 > 100 µM | SN12C > 100 µM | NCI-H522 > 100 µM | SF-295 > 100 µM | SNB-75 > 100 µM | SR > 100 µM | Malme-3M > 100 µM | DMS-273 > 100 µM | HCT-116 > 100 µM | CAKI-1 > 100 µM | SNB-78 > 100 µM | DMS-114 > 100 µM | HL-60 > 100 µM | RXF 393 > 100 µM | OVCAR-5 > 100 µM | OVCAR-8 > 100 µM | KM-20L2 > 100 µM | HT-29 > 100 µM | CCRF-CEM > 100 µM | 786-0 > 100 µM | LOX IMVI > 100 µM | NCI-H226 > 100 µM | EKVX > 100 µM | MOLT-4 > 100 µM | NCI-H23 > 100 µM | HOP-92 > 100 µM | HCC 2998 > 100 µM | SW-620 > 100 µM | XF498 > 100 µM | NCI-H460 > 100 µM | IGROV-1 > 100 µM | A498 > 100 µM | LXFL 529 > 100 µM | M14 > 100 µM | SK-MEL-28 > 100 µM | M19-MEL > 100 µM | SF-268 > 100 µM | HOP-18 > 100 µM | COLO 205 > 100 µM | U-251 > 100 µM | K562 > 100 µM | HOP-62 > 100 µM | KM12 > 100 µM | OVCAR-3 > 100 µM | SF-539 > 100 µM
